Assay results from ChEMBL document CHEMBL1127074, “Novel hypotensive agents from Verbesina caracasana. 2. Synthesis and pharmacology of caracasanamide” (1993).
Values joined by “and” are separate entries in the source; they are usually repeats but may differ in a detail not shown here. Equal entries are not always repeated.

How the values were obtained:
Rattus norvegicus [1] = assay: Maximum rate of rise of the left ventricular isovolumetric pressure administered at 800 ug/kg iv in anesthetized rats in presence of hexamethonium (5 mg/kg) (p<0.05); assay type: functional, Heart left ventricle
Rattus norvegicus [2] = assay: Tested for the change in systolic blood pressure administered at 100 ug/kg intravenously in anesthetized rats; assay type: functional, Artery
Rattus norvegicus [3] = assay: Change in heart rate administered at 800 ug/kg iv in anesthetized rats in presence of hexamethonium (5 mg/kg) (p<0.05); assay type: functional
Rattus norvegicus [4] = assay: Change in heart rate administered at 6400 ug/kg iv in anesthetized rats in presence of hexamethonium (5 mg/kg) (p<0.05); assay type: functional
Rattus norvegicus [5] = assay: Tested for the change in systolic blood pressure administered at 6400 ug/kg intravenously in anesthetized rats in presence of propranolol (3 mg/kg); assay type: functional, Artery
Rattus norvegicus [6] = assay: Tested for the change in diastolic blood pressure administered at 100 ug/kg intravenously in anesthetized rats; assay type: functional, Artery
Rattus norvegicus [7] = assay: Change in heart rate administered at 800 ug/kg iv in anesthetized rats in presence of phentolamine (2 mg/kg); assay type: functional
Rattus norvegicus [8] = assay: Tested for the change in diastolic blood pressure administered at 3200 ug/kg intravenously in anesthetized rats; assay type: functional, Artery
Rattus norvegicus [9] = assay: Change in heart rate administered at 3200 ug/kg iv in anesthetized rats in presence of hexamethonium (5 mg/kg) (p<0.05); assay type: functional
Rattus norvegicus [10] = assay: Tested for change in diastolic blood pressure administered at 4.12 uM/kg iv in anesthetized rats; assay type: functional, Artery
Rattus norvegicus [11] = assay: Tested for the change in systolic blood pressure administered at 100 ug/kg intravenously in anesthetized rats in presence of spinalization under vagotomy; assay type: functional, Artery
Rattus norvegicus [12] = assay: Tested for the change in systolic blood pressure administered at 3200 ug/kg intravenously in anesthetized rats in presence of phentolamine (2 mg/kg); assay type: functional, Artery
Rattus norvegicus [13] = assay: Change in respiratory frequency administered at 100 ug/kg iv in anesthetized rats; assay type: functional
Rattus norvegicus [14] = assay: Tested for the change in diastolic blood pressure administered at 50 ug/kg intravenously in anesthetized rats; assay type: functional, Artery
Rattus norvegicus [15] = assay: Tested for the change in systolic blood pressure administered at 800 ug/kg intravenously in anesthetized rats in presence of phentolamine (2 mg/kg); assay type: functional, Artery
Rattus norvegicus [16] = assay: Maximum rate of rise of the left ventricular isovolumetric pressure (dP/dt) administered at 200 ug/kg iv in anesthetized rats; assay type: functional, Heart left ventricle
Rattus norvegicus [17] = assay: Tested for the change in systolic blood pressure administered at 200 ug/kg intravenously in anesthetized rats; assay type: functional, Artery
Rattus norvegicus [18] = assay: Change in respiratory frequency administered at 6400 ug/kg iv in anesthetized rats; assay type: functional
Rattus norvegicus [19] = assay: Tested for the change in systolic blood pressure administered at 6400 ug/kg intravenously in anesthetized rats in presence of hexamethonium (5 mg/kg) (p<0.05); assay type: functional, Artery
Rattus norvegicus [20] = assay: Tested for the change in diastolic blood pressure administered at 200 ug/kg intravenously in anesthetized rats; assay type: functional, Artery
Rattus norvegicus [21] = assay: Tested for the change in diastolic blood pressure administered at 3200 ug/kg iv in anesthetized rats in presence of phentolamine (2 mg/kg); assay type: functional, Artery
Rattus norvegicus [22] = assay: Tested for the change in diastolic blood pressure administered at 800 ug/kg iv in anesthetized rats in presence of phentolamine (2 mg/kg); assay type: functional, Artery
Rattus norvegicus [23] = assay: Tested for the change in systolic blood pressure administered at 400 ug/kg intravenously in anesthetized rats; assay type: functional, Artery
Rattus norvegicus [24] = assay: Tested for the change in diastolic blood pressure administered at 400 ug/kg intravenously in anesthetized rats; assay type: functional, Artery
Rattus norvegicus [25] = assay: Maximum rate of rise of the left ventricular isovolumetric pressure administered at 3200 ug/kg iv in anesthetized rats in presence of phentolamine (2 mg/kg); assay type: functional, Heart left ventricle
Rattus norvegicus [26] = assay: Change in heart rate administered at 200 ug/kg iv in anesthetized rats in presence of spinalization under vagotomy; assay type: functional
Rattus norvegicus [27] = assay: Tested for the change in diastolic blood pressure administered at 800 ug/kg iv in anesthetized rats in presence of propranolol (3 mg/kg); assay type: functional, Artery
Rattus norvegicus [28] = assay: Change in heart rate administered at 3200 ug/kg iv in anesthetized rats in presence of phentolamine (2 mg/kg); assay type: functional
Rattus norvegicus [29] = assay: Maximum rate of rise of the left ventricular isovolumetric pressure administered at 800 ug/kg iv in anesthetized rats in presence of phentolamine (2 mg/kg); assay type: functional, Heart left ventricle
Rattus norvegicus [30] = assay: Tested for the change in diastolic blood pressure administered at 6400 ug/kg intravenously in anesthetized rats; assay type: functional, Artery
Rattus norvegicus [31] = assay: Change in heart rate administered at 1600 ug/kg iv in anesthetized rats in presence of propranolol (3 mg/kg) (p<0.05); assay type: functional
Rattus norvegicus [32] = assay: Maximum rate of rise of the left ventricular isovolumetric pressure administered at 3200 ug/kg iv in anesthetized rats in presence of hexamethonium (5 mg/kg) (p<0.05); assay type: functional, Heart left ventricle
Rattus norvegicus [33] = assay: Maximum rate of rise of the left ventricular isovolumetric pressure administered at 6400 ug/kg iv in anesthetized rats in presence of […] (3 mg/kg) (p<0.05); assay type: functional, Heart left ventricle
Rattus norvegicus [34] = assay: Maximum rate of rise of the left ventricular isovolumetric pressure (dP/dt) administered at 400 ug/kg iv in anesthetized rats; assay type: functional, Heart left ventricle
Rattus norvegicus [35] = assay: Maximum rate of rise of the left ventricular isovolumetric pressure (dP/dt) administered at 100 ug/kg iv in anesthetized rats; assay type: functional, Heart left ventricle
Rattus norvegicus [36] = assay: Maximum rate of rise of the left ventricular isovolumetric pressure administered at 100 ug/kg iv in anesthetized rats in presence of spinalization under vagotomy; assay type: functional, Heart left ventricle
Rattus norvegicus [37] = assay: Change in heart rate administered at 800 ug/kg iv in anesthetized rats in presence of propranolol (3 mg/kg) (p<0.05); assay type: functional
Rattus norvegicus [38] = assay: Tested for the change in diastolic blood pressure administered at 3200 ug/kg iv in anesthetized rats in presence of hexamethonium (5 mg/kg) (p<0.05); assay type: functional, Artery
Rattus norvegicus [39] = assay: Tested for the change in systolic blood pressure administered at 800 ug/kg intravenously in anesthetized rats in presence of hexamethonium (5 mg/kg) (p<0.05); assay type: functional, Artery
Rattus norvegicus [40] = assay: Tested for change in systolic blood pressure administered at 4.12 uM/kg iv in anesthetized rats; assay type: functional, Artery
Rattus norvegicus [41] = assay: Change in heart rate administered at 3200 ug/kg iv in anesthetized rats in presence of spinalization under vagotomy (p<0.05); assay type: functional
Rattus norvegicus [42] = assay: Tested for the change in systolic blood pressure administered at 50 ug/kg intravenously in anesthetized rats; assay type: functional, Artery
Rattus norvegicus [43] = assay: Maximum rate of rise of the left ventricular isovolumetric pressure (dP/dt) administered at 800 ug/kg iv in anesthetized rats; assay type: functional, Heart left ventricle
Rattus norvegicus [44] = assay: Tested for the change in systolic blood pressure administered at 3200 ug/kg intravenously in anesthetized rats in presence of hexamethonium (5 mg/kg) (p<0.05); assay type: functional, Artery

COc1ccc(/C=C/C(=O)NCCCC/N=C(\N)NCC=C(C)C)cc1OC
dp/dt (Rattus norvegicus [1]): 890 mmHg s-1 | Blood pressure (Rattus norvegicus [2]): -6 mmHg and -8% | Heart rate (Rattus norvegicus [3]): 5 beats min-1 | Heart rate (Rattus norvegicus [4]): 12 beats min-1 | Blood pressure (Rattus norvegicus [5]): -35 mmHg | Blood pressure (Rattus norvegicus [6]): -6 mmHg and -9% | Heart rate (Rattus norvegicus [7]): 17 beats min-1 | Blood pressure (Rattus norvegicus [8]): -29 mmHg and -47% | Heart rate (Rattus norvegicus [9]): 9 beats min-1 | Blood pressure (Rattus norvegicus [10]): -18 mmHg | Blood pressure (Rattus norvegicus [11]): 0 mmHg | Blood pressure (Rattus norvegicus [12]): -37 mmHg | Frequency (Rattus norvegicus [13]): 9 beats min-1 and 8% | Blood pressure (Rattus norvegicus [14]): -5 mmHg and -8% | Blood pressure (Rattus norvegicus [15]): -22 mmHg | BP (Rattus norvegicus [16]): 25% | dp/dt (Rattus norvegicus [16]): 1284 mmHg s-1 | Blood pressure (Rattus norvegicus [17]): -11 mmHg and -14% | Frequency (Rattus norvegicus [18]): -87 beats min-1 and -80% | Blood pressure (Rattus norvegicus [19]): -13 mmHg | Blood pressure (Rattus norvegicus [20]): -10 mmHg and -16% | Blood pressure (Rattus norvegicus [21]): -39 mmHg | Blood pressure (Rattus norvegicus [22]): -19 mmHg | Blood pressure (Rattus norvegicus [23]): -15 mmHg and -18% | Blood pressure (Rattus norvegicus [24]): -14 mmHg and -23% | dp/dt (Rattus norvegicus [25]): 2627 mmHg s-1 | Heart rate (Rattus norvegicus [26]): 0 beats min-1 | Blood pressure (Rattus norvegicus [27]): -13 mmHg | Heart rate (Rattus norvegicus [28]): 24 beats min-1 | dp/dt (Rattus norvegicus [29]): 2503 mmHg s-1 | Blood pressure (Rattus norvegicus [30]): -31 mmHg and -48% | Heart rate (Rattus norvegicus [31]): 7 beats min-1 | dp/dt (Rattus norvegicus [32]): 1124 mmHg s-1 | dp/dt (Rattus norvegicus [33]): 853 mmHg s-1 | BP (Rattus norvegicus [34]): 33% | dp/dt (Rattus norvegicus [34]): 1712 mmHg s-1 | BP (Rattus norvegicus [35]): 3% | dp/dt (Rattus norvegicus [35]): 141 mmHg s-1 | dp/dt (Rattus norvegicus [36]): 0 mmHg s-1 | Heart rate (Rattus norvegicus [37]): 6 beats min-1 | Blood pressure (Rattus norvegicus [38]): -17 mmHg | Blood pressure (Rattus norvegicus [39]): -5 mmHg | Blood pressure (Rattus norvegicus [40]): -21 mmHg | Heart rate (Rattus norvegicus [41]): 3 beats min-1 | Blood pressure (Rattus norvegicus [42]): -4 mmHg and -5% | BP (Rattus norvegicus [43]): 41% | dp/dt (Rattus norvegicus [43]): 2140 mmHg s-1 | Blood pressure (Rattus norvegicus [44]): -11 mmHg
